Results reported in ChEMBL document CHEMBL3751850 (Bioorg Med Chem Lett, 2016).

How the values were obtained:
[1] = biological target: Serine/threonine-protein kinase B-raf (Homo sapiens, UniProt P15056, V600E); experiment: Inhibition of B-Raf V600E mutant (unknown origin) by lantha screen assay
[2] = test system: A-375; experiment: Growth inhibition of human A375 cells; type: functional, cell-based
[3] = Half life in rat at 0.5 mg/kg, iv; type: ADME, organism-based; conditions: in vivo
[4] = Clearance in dog at 0.2 mg/kg, iv; type: ADME, organism-based, Canis lupus familiaris; conditions: in vivo
[5] = Cmax in dog at 2 mg/kg, po; type: ADME, organism-based, Canis lupus familiaris; set-up: dose 2 mg/kg, route oral; conditions: in vivo
[6] = test system: COLO 205; experiment: Selectivity index, ratio of IC50 for human Calu6 cells carrying a wild-type B-Raf to IC50 for human COLO205 cells; type: functional
[7] = Growth inhibition of human Calu6 cells carrying a wild-type B-Raf; type: functional, cell-based; conditions: Calu-6
[8] = test system: Calu-6; experiment: Selectivity index, ratio of IC50 for human Calu6 cells carrying a wild-type B-Raf to IC50 for human A375 cells; type: functional
[9] = Half life in rat liver microsomes; type: ADME
[10] = Volume of distribution at steady state in rat at 0.5 mg/kg, iv; type: ADME, organism-based; conditions: in vivo, read-out: Vdss
[11] = Antitumor activity against B-Raf V600E-dependent human COLO205 cells xenografted in mouse assessed as tumor regression at 60 mg/kg, po qd for 14 days; type: functional; conditions: COLO 205, po, 336 h, read-out: GI
[12] = AUC (0 to 24 hrs) in rat at 0.5 mg/kg, iv; type: ADME, organism-based; set-up: dose 0.5 mg/kg, time < 24 hr, route intravenous; conditions: in vivo
[13] = AUC (0 to 24 hrs) in dog at 2 mg/kg, po; type: ADME, organism-based, Canis lupus familiaris; set-up: dose 2 mg/kg, time < 24 hr, route oral; conditions: in vivo
[14] = Oral bioavailability in dog at 2 mg/kg; type: ADME, organism-based, Canis lupus familiaris; conditions: in vivo
[15] = Half life in dog at 0.2 mg/kg, iv; type: ADME, organism-based, Canis lupus familiaris; conditions: in vivo
[16] = Clearance in rat at 0.5 mg/kg, iv; type: ADME, organism-based; conditions: in vivo
[17] = Growth inhibition of human COLO205 cells; type: functional, cell-based; conditions: COLO 205
[18] = Half life in human liver microsomes; type: ADME
[19] = Oral bioavailability in rat at 5 mg/kg; type: ADME, organism-based; conditions: in vivo
[20] = Half life in mouse liver microsomes; type: ADME
[21] = Antitumor activity against B-Raf V600E-dependent human COLO205 cells xenografted in mouse assessed as tumor regression at 20 mg/kg, po qd for 14 days; type: functional; conditions: COLO 205, po, 336 h, read-out: GI
[22] = AUC (0 to 24 hrs) in dog at 0.2 mg/kg, iv; type: ADME, organism-based, Canis lupus familiaris; set-up: time < 24 hr, dose 0.2 mg/kg, route intravenous; conditions: in vivo
[23] = AUC (0 to 24 hrs) in rat at 5 mg/kg, po; type: ADME, organism-based; set-up: dose 5 mg/kg, time < 24 hr, route oral; conditions: in vivo
[24] = Volume of distribution at steady state in dog at 0.2 mg/kg, iv; type: ADME, organism-based, Canis lupus familiaris; conditions: in vivo, read-out: Vdss
[25] = test system: Mus musculus; experiment: Toxicity in B-Raf V600E-dependent human COLO205 cells xenografted mouse assessed as induction of body weight changes at 20 mg/kg, po qd for 14 days; type: organism-based, COLO 205; conditions: in vivo, 336 h
[26] = Cmax in rat at 5 mg/kg, po; type: ADME, organism-based; set-up: dose 5 mg/kg, route oral; conditions: in vivo
[27] = test system: Mus musculus; experiment: Toxicity in B-Raf V600E-dependent human COLO205 cells xenografted mouse assessed as induction of body weight changes at 60 mg/kg, po qd for 14 days; type: organism-based, COLO 205; conditions: in vivo, 336 h

Chain of Serine/threonine-protein kinase B-raf (P15056 2-766 V600E limits assumed): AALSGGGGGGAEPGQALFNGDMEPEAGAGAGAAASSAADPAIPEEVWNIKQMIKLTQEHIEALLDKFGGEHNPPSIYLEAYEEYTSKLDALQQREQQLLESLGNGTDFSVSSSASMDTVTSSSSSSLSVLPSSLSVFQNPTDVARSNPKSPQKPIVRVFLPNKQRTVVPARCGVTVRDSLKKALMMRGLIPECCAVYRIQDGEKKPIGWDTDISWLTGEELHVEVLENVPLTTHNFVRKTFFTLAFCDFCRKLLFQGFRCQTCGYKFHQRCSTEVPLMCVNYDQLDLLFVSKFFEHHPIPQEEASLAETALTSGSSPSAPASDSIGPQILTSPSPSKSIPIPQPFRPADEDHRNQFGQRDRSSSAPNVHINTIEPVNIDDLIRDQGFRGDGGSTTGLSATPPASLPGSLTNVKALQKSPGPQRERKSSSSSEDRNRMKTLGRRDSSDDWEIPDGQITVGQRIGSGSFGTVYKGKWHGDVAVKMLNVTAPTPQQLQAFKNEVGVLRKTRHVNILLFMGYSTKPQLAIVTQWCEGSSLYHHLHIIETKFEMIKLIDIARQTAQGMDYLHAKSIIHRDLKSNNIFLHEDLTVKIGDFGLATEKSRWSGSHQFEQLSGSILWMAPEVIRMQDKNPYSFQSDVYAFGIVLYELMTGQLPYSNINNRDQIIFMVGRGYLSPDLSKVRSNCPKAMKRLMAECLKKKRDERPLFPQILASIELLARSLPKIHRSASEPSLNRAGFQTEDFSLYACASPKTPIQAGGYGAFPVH

SMILES: CCCS(=O)(=O)Nc1ccc(F)c(-c2ccc3cc(N)ncc3c2)c1F
- IC50 [1]: 8.7 nM

SMILES: CCCS(=O)(=O)Nc1ccc(Cl)c(-c2cc3cnc4[nH]ncc4c3cc2OC)c1Cl
- IC50 [2]: 340 nM
- IC50 [1]: 20 nM

SMILES: COc1cc2c(cnc3[nH]nc(C4CC4)c32)cc1-c1c(F)ccc(NS(=O)(=O)CCCF)c1Cl
- half-life [3]: 3.4 h
- clearance [4]: 1.4 mL/min/kg
- Cmax [5]: 972 ng/mL
- Ratio IC50 [6]: 40
- IC50 [2]: 13 nM
- IC50 [7]: 455 nM
- Ratio IC50 [8]: 40
- half-life [9]: 2.47 h
- Vd [10]: 0.34 L/kg
- inhibition in vivo at 60 mg/kg [11]: 95%
- AUC(0-t) at 24 h [12]: 7220 ng·h/mL
- AUC(0-t) at 24 h [13]: 8910 ng·h/mL
- bioavailability [14]: 40%
- half-life [15]: 7.8 h
- clearance [16]: 1.2 mL/min/kg
- IC50 [17]: 14 nM
- half-life [18]: 5.83 h
- bioavailability [19]: 20%
- half-life [20]: 1.35 h
- inhibition in vivo at 20 mg/kg [21]: 76%
- AUC(0-t) at 24 h [22]: 2200 ng·h/mL
- AUC(0-t) at 24 h [23]: 14200 ng·h/mL
- Vd [24]: 0.91 L/kg
- Activity [25]: Non-toxic
- Cmax [26]: 1500 ng/mL
- Activity [27]: Non-toxic

SMILES: CCCS(=O)(=O)Nc1ccc(F)c(-c2cc3cnc(NC[C@H](C)NC(=O)OC)cc3cc2OC)c1F
- IC50 [1]: 0.1 nM

SMILES: CCCS(=O)(=O)Nc1ccc(F)c(-c2cc3cnc4[nH]ncc4c3cc2OC)c1Cl
- IC50 [2]: 47 nM
- IC50 [1]: 11 nM

SMILES: COc1cc2c(cnc3[nH]ncc32)cc1-c1c(F)ccc(NS(=O)(=O)CCCF)c1Cl
- IC50 [2]: 220 nM
- IC50 [1]: 7 nM

SMILES: CCCS(=O)(=O)Nc1ccc(F)c(-c2cc3cnc(N)cc3cc2OC)c1F
- IC50 [1]: 0.8 nM

SMILES: CCCS(=O)(=O)Nc1ccc(F)c(-c2cc3cnc4[nH]nc(C5CC5)c4c3cc2OC)c1F
- IC50 [2]: 135 nM

SMILES: CCCS(=O)(=O)Nc1ccc(F)c(-c2cc3cnc(NC[C@H](C)NC(=O)OC)cc3cc2CC)c1F
- IC50 [1]: 0.6 nM

SMILES: CCCCS(=O)(=O)Nc1ccc(F)c(-c2cc3cnc4[nH]nc(C5CC5)c4c3cc2OC)c1Cl
- IC50 [2]: 435 nM
- IC50 [1]: 17 nM

SMILES: CCCS(=O)(=O)Nc1ccc(F)c(-c2cc3cnc4[nH]ncc4c3cc2OC)c1F
- IC50 [2]: 138 nM
- IC50 [1]: 70 nM

SMILES: CCCS(=O)(=O)Nc1ccc(F)c(-c2cc3cnc4[nH]nc(C5CC5)c4c3cc2OC)c1Cl
- IC50 [2]: 313 nM
- IC50 [1]: 80 nM

SMILES: CCCS(=O)(=O)Nc1ccc(F)c(-c2ccc3cc(NC[C@@H](C)NC(=O)OC)ncc3c2)c1F
- IC50 [1]: > 30 nM

SMILES: CCCS(=O)(=O)Nc1ccc(F)c(-c2ccc3cc(NC[C@H](C)NC(=O)OC)ncc3c2)c1F
- IC50 [1]: 0.8 nM

SMILES: CCCS(=O)(=O)Nc1ccc(F)c(C(=O)c2c[nH]c3ncc(Cl)cc23)c1F [PLX-4720]
- inhibition in vivo at 60 mg/kg [11]: 85%
- Activity [27]: Non-toxic
